Results taken from paper PMC11858513, “Antibiofilm Activities of Tritrpticin Analogs Against Pathogenic Pseudomonas aeruginosa PA01 Strains” (Molecules, 2025).
Values after ≈ are worked out from the molar mass of the structure shown. Read-outs that look alike come from different tables or passages of the source. Non-standard residues stand in square brackets, D forms with d. Residues, ends and D or L forms follow the SMILES beside them. Dap = NC[C@H](N)C(=O)O

Legend:
[1] = cited from earlier work
Source text: (§1) Overall, our work highlights the potential of […] analogs in comparison to related Trp-rich AMPs as potent antibiofilm peptides that can interfere in biofilms produced by P. aeruginosa and potentially other Gram-negative pathogenic bacteria. New antibiofilm agents are welcome for this organism, as P. aeruginosa is well-known to have numerous mechanisms to elude the action of antibiotics during biofilm formation. Various factors can influence the suitability of AMPs to act as bactericidal and antibiofilm peptides simultaneously (for a general discussion see, for example, [74]). One ...

P. aeruginosa PAO1 [2] = assay type: cell-based
Method in brief: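 Peptides tested against P. aeruginosa PAO1 in 1× BM2 medium; planktonic growth read at 600 nm for MIC. Biofilm inhibition and eradication quantified by 0.1% crystal violet staining (15 min), ethanol release, absorbance at 595 nm, plus GFP-fluorescence and Calgary peg-device methods; triplicate means.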

P. aeruginosa PAO1 [3] = assay type: cell-based, Pseudomonas aeruginosa; settings: absorbance 600 nm
Method in brief: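 PAO1 tested with peptides in 1× BM2; planktonic growth read at 600 nm, biofilm quantified by 0.1% crystal violet staining (15 min), ethanol release and 595 nm reading, using a Calgary biofilm device. Values are means of three replicates with untreated-growth and medium-only controls.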

P. aeruginosa PAO1 GFP [4] = experiment: MBEC, biofilm eradication, GFP fluorescence method; assay type: cell-based, Pseudomonas aeruginosa
Method in brief: (§2)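 GFP-expressing P. aeruginosa PAO1 exposed to peptides; planktonic MIC read by absorbance at 600 nm, while MBIC (prevention) and MBEC (eradication) used biofilm GFP fluorescence at 480/530 nm. Triplicate biological replicates averaged, with untreated growth and medium-only controls on each plate.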

P. aeruginosa PAO1 GFP [5] = experiment: MBIC, prevention of biofilm formation, GFP fluorescence method; assay type: cell-based, Pseudomonas aeruginosa
Method in brief: as §2

P. aeruginosa PAO1 GFP [6] = experiment: MIC against planktonic cells, absorbance at 600 nm; assay type: cell-based, Pseudomonas aeruginosa; settings: absorbance 600 nm
Method in brief: as §2

red blood cells = settings: cited from earlier work
Source text: as §1

[7] = tested on: peripheral blood mononuclear cells (PBMCs); settings: cited from earlier work
Source text: as §1

P. aeruginosa PAO1 [8] = assay type: cell-based, Pseudomonas aeruginosa; settings: Table 5; PAO1, 1x BM2; biofilms on pegs, cells plated and counted; three biological replicates
Method in brief: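 Biofilm eradication (MBEC) for peptides against P. aeruginosa PAO1 in 1× BM2 medium, from counts of biofilm cells; GFP-producing strain fluorescence, crystal violet staining and Calgary peg device also used. Three biological replicates, mean ± SD, with untreated growth and medium-only controls.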

S. aureus GFP [9] = experiment: MBEC, GFP fluorescence method; assay type: cell-based, Staphylococcus aureus; settings: Table 4, Sa GFP, 10% TSB and 0.1% glucose, mean of three biological replicates
Method in brief: (§3)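 GFP-expressing S. aureus, triplicate biological replicates. MIC on planktonic cells by absorbance at 600 nm. MBIC and MBEC from biofilm GFP fluorescence (480/530 nm), with untreated growth and media-only controls.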

S. aureus GFP [10] = experiment: MIC against planktonic cells, absorbance at 600 nm; assay type: cell-based, Staphylococcus aureus; settings: Table 4; Sa GFP, 10% TSB and 0.1% glucose; absorbance 600 nm; mean of three biological replicates
Method in brief: as §3

S. aureus GFP [11] = assay type: cell-based, Staphylococcus aureus; settings: Table 4; Sa GFP; lowest concentration of peptide with no bacterial growth seen on the spot agar plate
S. aureus GFP [12] = experiment: MBIC, GFP fluorescence method; assay type: cell-based, Staphylococcus aureus; settings: Table 4, Sa GFP, 10% TSB and 0.1% glucose, mean of three biological replicates
Method in brief: as §3

[13] = Table 6, Tritrp-Lys derivatives, PAO1, BM2, 0.1% crystal violet 15 min, released with 95% ethanol, 595 nm, three replicates, unit not given
[14] = Table 6, Tritrp-Lys derivatives, PAO1, BM2, three replicates, unit not given
[15] = Table 3, Tritrp-Lys derivatives, BM2 medium, three replicates
[16] = Table 5, PAO1, 1x BM2, crystal violet at 595 nm, mean of three biological replicates
[17] = Table 5, minimum biofilm reduction concentration, PAO1, 1x BM2, crystal violet at 595 nm, mean of three biological replicates
[18] = Table 5, regular PAO1 (no GFP), 1x BM2, mean of three biological replicates
[19] = Table 2, BM2 medium, mean of three biological replicates

Compound	cytotoxicity activities against PBMCs [7]	MBEC from Calgary Biofilm Device (CBD) LD50 (P. aeruginosa PAO1 [8]) [µmol/L]	MBEC from Calgary Biofilm Device (CBD) LD90 (P. aeruginosa PAO1 [8]) [µmol/L]	MBIC (CV at 595 nm) LD90 (P. aeruginosa PAO1 [2]; [16]) [µmol/L]	MBRC (CV at 595 nm) LD90 (P. aeruginosa PAO1 [2]; [17]) [µmol/L]	MIC at 600 nm LD50 (P. aeruginosa PAO1 [3]; [18]) [µmol/L]	MIC at 600 nm LD90 (P. aeruginosa PAO1 [3]; [18]) [µmol/L]	MBEC at 488 and 530 nm LD50 (S. aureus GFP [9]) [µmol/L]	MBEC at 488 and 530 nm LD90 (S. aureus GFP [9]) [µmol/L]	MBEC at 488 and 530 nm LD50 (P. aeruginosa PAO1 GFP [4]; [19]) [µmol/L]	MBEC at 488 and 530 nm LD90 (P. aeruginosa PAO1 GFP [4]; [19]) [µmol/L]	MIC at 600 nm LD50 (S. aureus GFP [10]) [µM]	MIC at 600 nm LD90 (S. aureus GFP [10]) [µM]	MBC Agar Plate (S. aureus GFP [11]) [µM]	MBIC at 488 and 530 nm LD50 (P. aeruginosa PAO1 GFP [5]; [19]) [µmol/L]	MBIC at 488 and 530 nm LD90 (P. aeruginosa PAO1 GFP [5]; [19]) [µmol/L]	MIC at 600 nm LD50 (P. aeruginosa PAO1 GFP [6]; [19]) [µM]	MIC at 600 nm LD90 (P. aeruginosa PAO1 GFP [6]; [19]) [µM]	MBIC at 488 and 530 nm LD50 (S. aureus GFP [12]) [µmol/L]	MBIC at 488 and 530 nm LD90 (S. aureus GFP [12]) [µmol/L]	further results
NCC(N)C(=O)O (centres unmarked) [Dap, 2,3-diaminopropionic acid]																					sidechain pKa value [1]: 6.3
CC(C)C[C@H](NC(=O)[C@H](Cc1ccccc1)NC(=O)[C@@H]1CCCN1C(=O)[C@H](Cc1c[nH]c2ccccc12)NC(=O)[C@H](Cc1c[nH]c2ccccc12)NC(=O)[C@H](Cc1c[nH]c2ccccc12)NC(=O)[C@@H]1CCCN1C(=O)[C@H](Cc1ccccc1)NC(=O)[C@H](CN)NC(=O)[C@H](CN)NC(=O)[C@@H](N)C(C)C)C(=O)N[C@@H](CN)C(=O)N[C@@H](CN)C(N)=O [Tritrp-Dap] (H-V[Dap][Dap]FPWWWPFL[Dap][Dap]-NH2; N-terminus assumed)	no effect																				MBEC (CV at 595 nm) LD90 (P. aeruginosa PAO1 [2]; [13]): 64; MBIC (CV at 595 nm) LD90 (P. aeruginosa PAO1 [2]; [13]): 16; MIC at 600 nm LD50 (P. aeruginosa PAO1 [3]; [14]): 8; MIC at 600 nm LD90 (P. aeruginosa PAO1 [3]; [14]): 16; MBEC at 488 and 530 nm LD50 (P. aeruginosa PAO1 GFP [4]; [15]): 8 µmol/L; MBEC at 488 and 530 nm LD90 (P. aeruginosa PAO1 GFP [4]; [15]): 64 µmol/L; MBIC at 488 and 530 nm LD50 (P. aeruginosa PAO1 GFP [5]; [15]): 8 µmol/L; MBIC at 488 and 530 nm LD90 (P. aeruginosa PAO1 GFP [5]; [15]): 16 µmol/L; MIC at 600 nm LD50 (P. aeruginosa PAO1 GFP [6]; [15]): 8 µM (≈ 13 µg/mL); MIC at 600 nm LD90 (P. aeruginosa PAO1 GFP [6]; [15]): 8 µM (≈ 13 µg/mL); effect on RBCs (red blood cells): no effect
CC(C)C[C@H](NC(=O)[C@H](Cc1ccccc1)NC(=O)[C@H](C)NC(=O)[C@H](Cc1c[nH]c2ccccc12)NC(=O)[C@H](Cc1c[nH]c2ccccc12)NC(=O)[C@H](Cc1c[nH]c2ccccc12)NC(=O)[C@@H]1CCCN1C(=O)[C@H](Cc1ccccc1)NC(=O)[C@H](CCCNC(=N)N)NC(=O)[C@H](CCCNC(=N)N)NC(=O)[C@@H](N)C(C)C)C(=O)N[C@@H](CCCNC(=N)N)C(=O)N[C@@H](CCCNC(=N)N)C(N)=O [Tritrp-P9A] (H-VRRFPWWWAFLRR-NH2)	quite strong	8	16	2	32	2 (≈ 3.75 µg/mL)	2 (≈ 3.75 µg/mL)	0.5	2	4	8	0.25 (≈ 0.469 µg/mL)	1 (≈ 1.88 µg/mL)	2 (≈ 3.75 µg/mL)	0.25	2	2 (≈ 3.75 µg/mL)	2 (≈ 3.75 µg/mL)	0.25	2	MBIC (CV at 595 nm) LD50 (P. aeruginosa PAO1 [2]; PAO1): 1 µmol/L; MBRC (CV at 595 nm) LD50 (P. aeruginosa PAO1 [2]; PAO1): 16 µmol/L; hemolytic activity (red blood cells): slightly more modest
CC(C)C[C@H](NC(=O)[C@H](Cc1ccccc1)NC(=O)[C@H](C)NC(=O)[C@H](Cc1c[nH]c2ccccc12)NC(=O)[C@H](Cc1c[nH]c2ccccc12)NC(=O)[C@H](Cc1c[nH]c2ccccc12)NC(=O)[C@H](C)NC(=O)[C@H](Cc1ccccc1)NC(=O)[C@H](CCCNC(=N)N)NC(=O)[C@H](CCCNC(=N)N)NC(=O)[C@@H](N)C(C)C)C(=O)N[C@@H](CCCNC(=N)N)C(=O)N[C@@H](CCCNC(=N)N)C(N)=O [Tritrp-P59A] (H-VRRFAWWWAFLRR-NH2)	quite strong	16	32	4	32	2 (≈ 3.7 µg/mL)	4 (≈ 7.4 µg/mL)	1	2	8	16	1 (≈ 1.85 µg/mL)	2 (≈ 3.7 µg/mL)	4 (≈ 7.4 µg/mL)	2	4	2 (≈ 3.7 µg/mL)	4 (≈ 7.4 µg/mL)	2	2	MBIC (CV at 595 nm) LD50 (P. aeruginosa PAO1 [2]; PAO1): 4 µmol/L; MBRC (CV at 595 nm) LD50 (P. aeruginosa PAO1 [2]; PAO1): 32 µmol/L; hemolytic activity (red blood cells): relatively strong
CC(C)C[C@H](NC(=O)[C@H](Cc1ccccc1)NC(=O)[C@@H]1CCCN1C(=O)[C@H](Cc1ccc(O)cc1)NC(=O)[C@H](Cc1ccc(O)cc1)NC(=O)[C@H](Cc1ccc(O)cc1)NC(=O)[C@@H]1CCCN1C(=O)[C@H](Cc1ccccc1)NC(=O)[C@H](CCCNC(=N)N)NC(=O)[C@H](CCCNC(=N)N)NC(=O)[C@@H](N)C(C)C)C(=O)N[C@@H](CCCNC(=N)N)C(=O)N[C@@H](CCCNC(=N)N)C(N)=O [Tritrp-W678Y] (H-VRRFPYYYPFLRR-NH2)		>128	>128	>64	>128	>64	>64	2	8	>128	>128	1 (≈ 1.83 µg/mL)	2 (≈ 3.66 µg/mL)	16 (≈ 29.3 µg/mL)	>64	>64	>64	>64	1	2	MBRC (CV at 595 nm) LD50 (P. aeruginosa PAO1 [2]; PAO1): 128 µmol/L; MBIC (CV at 595 nm) LD50 (P. aeruginosa PAO1 [2]; [16]): >64 µmol/L
VRRFP(hW)(hW)(hW)PFLRR-NH2 [Tritrp-W678hW, Tritrp analog with hydroxy-Trp in place of the three Trp]		>128	>128	>64	>128	>64	>64	4	8	>128	>128	2	4	16	16	64	32	64	2	4	MBIC (CV at 595 nm) LD50 (P. aeruginosa PAO1 [2]; [16]): 32 µmol/L; MBRC (CV at 595 nm) LD50 (P. aeruginosa PAO1 [2]; [17]): >128 µmol/L
